{"source": "paper PMC11861483", "about": "“Genetic characterization of the AHAS mutant line K4 with resistance to AHAS-inhibitor herbicides in rapeseed (Brassica napus L.)” (Stress Biology, 2025)", "target": "T1, BnAHAS3 (ZS9) (Brassica napus, UniProt P27819)", "T1 construct": "native, isolated and purified from total protein of ZS9 seedlings; AHAS on SDS-PAGE about 58-66 kD; immobilised on CM5 chip", "T1 sequence (P27819 70-652)": "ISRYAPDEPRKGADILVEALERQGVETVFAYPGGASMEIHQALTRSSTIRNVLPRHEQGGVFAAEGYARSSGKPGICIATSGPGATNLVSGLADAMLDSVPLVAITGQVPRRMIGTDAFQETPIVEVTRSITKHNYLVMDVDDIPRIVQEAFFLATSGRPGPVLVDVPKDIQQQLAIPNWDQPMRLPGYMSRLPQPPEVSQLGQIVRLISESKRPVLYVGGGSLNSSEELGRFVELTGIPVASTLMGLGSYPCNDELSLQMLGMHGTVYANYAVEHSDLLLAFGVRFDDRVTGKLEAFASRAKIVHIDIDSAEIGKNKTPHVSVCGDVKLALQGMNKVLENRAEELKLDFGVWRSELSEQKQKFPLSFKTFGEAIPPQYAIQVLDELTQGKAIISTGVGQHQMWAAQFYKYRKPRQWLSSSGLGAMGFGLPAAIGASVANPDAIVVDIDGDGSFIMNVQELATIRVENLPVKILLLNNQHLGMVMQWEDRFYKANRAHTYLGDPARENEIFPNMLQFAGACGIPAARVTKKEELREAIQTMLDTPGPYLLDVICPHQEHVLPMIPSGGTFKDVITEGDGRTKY", "experiment": "surface plasmon resonance (Biacore T200, CM5 chip), kinetic fit kd/ka", "format": "binding", "settings": "read-out: Tribenuron-methyl / KD", "description": "surface plasmon resonance (Biacore T200, CM5 chip), kinetic fit kd/ka on BnAHAS3 (ZS9)"}
{"compound": "COC(=O)c1ccccc1S(=O)(=O)NC(=O)N(C)c1nc(C)nc(OC)n1", "note": "[tribenuron-methyl]", "values": [{"measurement": "Kd", "value": 33, "unit": "µM"}]}
